US20260231590A1, “AROMATIC COMPOUND, ORGANIC SEMICONDUCTOR LAYER AND ORGANIC THIN FILM TRANSISTOR” (TOSOH CORPORATION, priority 2023, published 2026)

What was measured:
Type in all cases: physicochemical
[1] = Solution for forming an organic semiconductor layer: dissolved in toluene at 50° C., state after cooling to 25° C.; settings: 0.44 mg in 434 mg of toluene, heated to 50° C., allowed to cool at room temperature (25° C.)
[2] = as above; settings: 0.20% by weight in toluene, dissolved at 50° C., after 10 hours at 25° C.
Procedure: In air, 1.74 mg of the 2,8-di(2-cyclohexylethyl)anthra[1,2-b:5,6-b′]dithiophene synthesized in Example 2 (compound 2) and 868 mg of toluene (FUJIFILM Wako Pure Chemical Industries Corporation, pure grade) were added to a 10-ml sample tube. After dissolution by heating to 50° C., the solution was allowed to cool at room temperature (25° C.), whereby a solution for forming an organic semiconductor layer was prepared. […] (the concentration of compound 2 was 0.20% by weight), confirming that compound 2 is a compound suitable for film formation by drop casting and inkjet printing.

[3] = Evaluation of solubility in organic solvents; settings: room temperature (25° C.), complete dissolution by visual observation
Procedure: Toluene and n-octane were each added to predetermined amounts of the aromatic compounds obtained in Examples 1, 4, 5, 6, 7, 8, 9, 12, 13, 14, 15, 18, 19, 20, 22 and 23 to give compositions for film formation. The weight of each organic solvent required to completely dissolve the aromatic compound at room temperature (25° C.) was measured, and solubility (% by weight) was calculated. The determination of the point of complete dissolution was confirmed by visual observation.

Compound | state of solution for forming an organic semiconductor layer [1] | state of solution for forming an organic semiconductor layer [2] | Solubility [% by weight] n-octane [3] [% by weight] | Solubility [% by weight] Toluene [3] [% by weight]
c1ccc(-c2ccc3c(c2)sc2c4ccc(-c5ccccc5)cc4sc32)cc1 [2,7-diphenyl[1]benzothieno[3,2-b][1]benzothiophene] | solid precipitation observed | – | – | –
CCCCCCCCc1cc2ccc3cc4c(ccc5cc(CCCCCCCC)sc54)cc3c2s1 [2,8-dioctylanthra[1,2-b:5,6-b′]dithiophene, reference compound] | – | remained in solution form | – | –
c1cc2ccc3cc4c(ccc5cc(CCC6CCCCC6)sc54)cc3c2s1 [Compound 1, 2-(2-Cyclohexylethyl)anthra[1,2-b:5,6-b′]dithiophene] | – | – | ≥0.1 | ≥1.0
c1cc2cc(CCC3CCCCC3)sc2c2cc3ccc4cc(CCC5CCCCC5)sc4c3cc12 [Compound 2, 2,8-Di(2-cyclohexylethyl)anthra[1,2-b:5,6-b′]dithiophene] | – | remained in solution form | – | –
CCCc1cc2ccc3cc4c(ccc5cc(CCC6CCCCC6)sc54)cc3c2s1 [Compound 4, 2-(2-Cyclohexylethyl)-8-propylanthra[1,2-b:5,6-b′]dithiophene] | – | – | ≥0.5 | ≥1.0
CC(C)Cc1cc2ccc3cc4c(ccc5cc(CCC6CCCCC6)sc54)cc3c2s1 [Compound 5, 2-(2-Cyclohexylethyl)-8-isobutylanthra[1,2-b:5,6-b′]dithiophene] | – | – | ≥0.2 | ≥1.0
CCCCc1cc2ccc3cc4c(ccc5cc(CCC6CCCCC6)sc54)cc3c2s1 [Compound 6, 2-Butyl-8-(2-cyclohexylethyl)anthra[1,2-b:5,6-b′]dithiophene] | – | – | ≥0.5 | ≥1.0
CCCCCc1cc2ccc3cc4c(ccc5cc(CCC6CCCCC6)sc54)cc3c2s1 [Compound 7, 2-(2-Cyclohexylethyl)-8-pentylanthra[1,2-b:5,6-b′]dithiophene] | – | – | ≥0.2 | ≥1.0
CCCCCCc1cc2ccc3cc4c(ccc5cc(CCC6CCCCC6)sc54)cc3c2s1 [Compound 8, 2-(2-Cyclohexylethyl)-8-hexylanthra[1,2-b:5,6-b′]dithiophene] | – | remained in solution form | ≥0.5 | ≥1.0
c1cc2ccc3cc4c(ccc5cc(CCC6CCCC6)sc54)cc3c2s1 [Compound 9, 2-(2-Cyclopentylethyl) anthra[1,2-b:5,6-b′]dithiophene] | – | – | ≥1.0 | ≥1.0
c1cc2cc(CCC3CCCC3)sc2c2cc3ccc4cc(CCC5CCCC5)sc4c3cc12 [Compound 10, 2,8-Di(2-cyclopentylethyl)anthra[1,2-b:5,6-b′]dithiophene] | – | remained in solution form | – | –
CC(C)Cc1cc2ccc3cc4c(ccc5cc(CCC6CCCC6)sc54)cc3c2s1 [Compound 12, 2-(2-Cyclopentylethyl)-8-isobutylanthra[1,2-b:5,6-b′]dithiophene] | – | remained in solution form | ≥0.5 | ≥1.0
CCCCCCc1cc2ccc3cc4c(ccc5cc(CCC6CCCC6)sc54)cc3c2s1 [Compound 13, 2-(2-Cyclopentylethyl)-8-hexylanthra[1,2-b:5,6-b′]dithiophene] | – | remained in solution form | ≥0.5 | ≥1.0
c1cc2cc(CCC3CCCCC3)sc2c2cc3ccc4cc(CCC5CCCC5)sc4c3cc12 [Compound 14, 2-(2-Cyclohexylethyl)-8-(2-cyclopentylethyl)anthra[1,2-b:5,6-b′]dithiophene] | – | remained in solution form | ≥1.0 | ≥1.0
c1cc2ccc3cc4c(ccc5cc(CCCC6CCCCC6)sc54)cc3c2s1 [Compound 15, 2-(3-Cyclohexylpropyl)anthra[1,2-b:5,6-b′]dithiophene] | – | – | ≥0.5 | ≥1.0
CCCCCCc1cc2ccc3cc4c(ccc5cc(CCCC6CCCCC6)sc54)cc3c2s1 [Compound 18, 2-(3-Cyclohexylpropyl)-8-hexylanthra[1,2-b:5,6-b′]dithiophene] | – | remained in solution form | ≥0.2 | ≥1.0
c1cc2ccc3c(c2s1)-c1ccc2cc(CCC4CCCCC4)sc2c1-3 [Compound 19, 2-(2-Cyclohexylethyl) biphenyleno[1,2-b:5,6-b′]dithiophene] | – | – | ≥0.5 | ≥1.0
c1cc2cc(CCC3CCCCC3)sc2c2c1-c1c-2ccc2cc(CCC3CCCCC3)sc12 [Compound 20, 2,7-Bis(2-cyclohexylethyl)biphenyleno[1,2-b:5,6-b′]dithiophene] | – | remained in solution form | ≥0.5 | ≥1.0
c1cc2cc(CCC3CCCC3)sc2c2c1-c1c-2ccc2cc(CCC3CCCC3)sc12 [Compound 23, 2,7-Bis(2-cyclopentylethyl)biphenyleno[1,2-b:5,6-b′]dithiophene] | – | – | ≥0.2 | ≥1.0
CCCCCc1cc2ccc3cc4c(ccc5cc(CCCC6CCCCC6)sc54)cc3c2s1 [Compound 25, 2-(3-Cyclohexylpropyl)-8-pentylanthra[1,2-b:5,6-b′]dithiophene] | – | remained in solution form | – | –
CCCCCCc1cc2ccc3cc4c(ccc5cc(CCCC6CCCC6)sc54)cc3c2s1 [Compound 31, 2-(3-Cyclopentylpropyl)-8-hexylanthra[1,2-b:5,6-b′]dithiophene] | – | remained in solution form | – | –
CCCCCCCCc1ccc(CCc2cc3ccc4cc5c(ccc6cc(CCC7CCCCC7)sc65)cc4c3s2)cc1 [Compound 40, 2-(2-Cyclohexylethyl)-8-(4-octylphenylethyl)anthra[1,2-b:5,6-b′]dithiophene] | – | remained in solution form | – | –
